In US10259847B2, “Beta-hairpin peptidomimetics” (POLYPHOR AG, priority 2014, dated 2019):
Read-outs that look alike come from different tables or passages of the source. Where a SMILES comes first, the peptide text is derived from it. Bridges are numbered along the chain shown (N, C = ends). [ ]: non-standard residue; d: D form. Tle = CC(C)(C)[C@H](N)C(=O)O; dDab = NCC[C@@H](N)C(=O)O; NMeA = CN[C@@H](C)C(=O)O; Orn = NCCC[C@H](N)C(=O)O; Dab = NCC[C@H](N)C(=O)O; Dap = NC[C@H](N)C(=O)O

Key:
Format in all cases: cell-based
[1] = tested on: human red blood cells (hRBC); test: Hemolysis of human red blood cells
Method: (§1) Stock solutions were kept at +4° C., light protected.
Percent hemolysis was calculated as follows: (OD540peptide/OD540H2O)×100%.

[2] = tested on: Escherichia coli ATCC 25922
Method: as §1
(§2) The selective antimicrobial activities of the peptides were determined in 96-well plates (Greiner, polystyrene) by the standard NCCLS broth microdilution method (National Committee for Clinical Laboratory Standards 1993. Methods for dilution antimicrobial susceptibility tests for bacteria that grow aerobically, 3rd ed. Approved standard M7-A6; National Committee for Clinical laboratory standards, Wayne, Pa.) with slight modifications. Inocula of the microorganisms were diluted into Mueller-Hinton II (MH, cation adjusted) broth and compared with a 0.5 McFarland standard to give appr. 10^6 colony forming units (CFU)/mL. Aliquots (90 μl) of inoculate were added to 10 μl of MH broth+P-80 (Polysorbate 80, 0.002% final concentration) containing the peptide in serial two-fold dilutions. The following microorganisms were used to determine antibiotic selectivity of the peptides: Escherichia coli ATCC 25922, Klebsiella pneumoniae ATCC 13883 and Acinetobacter baumannii DSM 30008.

[3] = tested on: Acinetobacter baumannii DSM 30008
Method: as §1, §2

[4] = tested on: Klebsiella pneumoniae ATCC 13883
Method: as §1, §2

[5] = Mueller-Hinton broth II, 0.002% P-80, 18-20 hours at 35° C.

Escherichia coli ATCC 25922 MIC ([2]; ATCC 25922) [µg/mL]	Acinetobacter baumannii DSM 30008 MIC ([3]; DSM 30008) [µg/mL]	Klebsiella pneumoniae ATCC 13883 MIC ([4]; ATCC 13883) [µg/mL]	Compound	Hemolysis at 100 μg/mL ([1]; red cells of human, 1 h, 100) [%]	Hemolysis at 100 μg/mL ([1]; 100 μg/mL, 20% hRBC (v/v), 1 h at 37° C.) [%]	Escherichia coli ATCC 25922 MIC [2, 5] [µg/mL]	Acinetobacter baumannii DSM 30008 MIC [3, 5] [µg/mL]	Klebsiella pneumoniae ATCC 13883 MIC [4, 5] [µg/mL]
2	4	0.5	CC(C)C[C@@H]1NC(=O)[C@@H]2CCCN2C(=O)[C@H]2CCCN2C(=O)[C@H](CO)NC(=O)[C@@H]2CNC(=O)C[C@H](NC1=O)C(=O)N[C@@H](Cc1ccc(O)cc1)C(=O)N[C@@H](CCN)C(=O)N[C@@H](CCCN)C(=O)N[C@H](CCN)C(=O)N[C@@H](CCN)C(=O)N[C@@H](Cc1c[nH]c3ccccc13)C(=O)N[C@@H](CCN)C(=O)N[C@@H](C(C)(C)C)C(=O)N2 [Example 21, cyclo(-Leu-Asp-Tyr-Dab-Orn-^DDab-Dab-Trp-Dab-tBuGly-Dap-Ser-^DPro-Pro-)] (cyclo(LDY[Dab][Orn][dDab][Dab]W[Dab][Tle][Dap]S[dP]P); lactam 2-11)	1				
0.5	1	0.25	C[C@@H]1NC(=O)[C@H](C(C)(C)C)NC(=O)[C@H](CCN)NC(=O)[C@H](Cc2c[nH]c3ccccc23)NC(=O)[C@H](CCN)NC(=O)[C@@H](CCN)NC(=O)[C@H](CCCN)NC(=O)[C@H](CCN)NC(=O)[C@H](Cc2ccc(O)cc2)NC(=O)[C@H](CN)NC(=O)[C@H](Cc2ccccc2)NC(=O)[C@H](Cc2ccc(O)cc2)NC(=O)[C@H]2CCCN2C(=O)[C@H](CO)NC1=O [Example 44, cyclo(-Phe-Dap-Tyr-Dab-Orn-^DDab-Dab-Trp-Dab-tBuGly-Ala-Ser-^DPro-Tyr-)] (cyclo(AS[dP]YF[Dap]Y[Dab][Orn][dDab][Dab]W[Dab][Tle]))	0				
2	4	2	CC(C)[C@@H]1NC(=O)[C@@H]2CCCN2C(=O)[C@H]2CCCN2C(=O)[C@H](Cc2c[nH]cn2)NC(=O)[C@@H]2CC(=O)NCC[C@H](NC1=O)C(=O)N[C@@H](Cc1ccc(O)cc1)C(=O)N[C@@H](CCN)C(=O)N[C@@H]([C@@H](C)O)C(=O)N[C@@H](CCN)C(=O)N[C@@H](CCN)C(=O)N[C@@H](Cc1c[nH]c3ccccc13)C(=O)N[C@@H](CCN)C(=O)N[C@@H](C(C)(C)C)C(=O)N2 [Example 17, cyclo(-Val-Dab-Tyr-Dab-Thr-Dab-Dab-Trp-Dab-tBuGly-Asp-His-^DPro-Pro-)] (HELM PEPTIDE1{V.[Dab].Y.[Dab].T.[Dab].[Dab].W.[Dab].[CC(C)(C)[C@H](N[*:1])C(=O)[*:2]].D.H.[dP].P}$PEPTIDE1,PEPTIDE1,2:R3-11:R3|PEPTIDE1,PEPTIDE1,1:R1-14:R2$$$V2.0)	1				
0.5	0.5	0.5	CC(C)C[C@@H]1NC(=O)[C@@H]2CCCN2C(=O)[C@H]2CCCN2C(=O)[C@H](CO)NC(=O)[C@@H]2CC(=O)NCC[C@H](NC1=O)C(=O)N[C@@H](Cc1ccc(O)cc1)C(=O)N[C@@H](CCN)C(=O)N[C@@H](CCCN)C(=O)N[C@@H](CCN)C(=O)N[C@@H](CCN)C(=O)N[C@@H](Cc1c[nH]c3ccccc13)C(=O)N[C@@H](CCN)C(=O)N[C@@H](C(C)(C)C)C(=O)N2 [Example 32, cyclo(-Leu-Dab-Tyr-Dab-Orn-Dab-Dab-Trp-Dab-tBuGly-Asp-Ser-^DPro-Pro-)] (HELM PEPTIDE1{L.[Dab].Y.[Dab].[Orn].[Dab].[Dab].W.[Dab].[CC(C)(C)[C@H](N[*:1])C(=O)[*:2]].D.S.[dP].P}$PEPTIDE1,PEPTIDE1,2:R3-11:R3|PEPTIDE1,PEPTIDE1,1:R1-14:R2$$$V2.0)	1				
1	1	0.5	CC(C)C[C@@H]1NC(=O)[C@@H]2CCCN2C(=O)[C@H]2CCCN2C(=O)[C@H](CO)NC(=O)[C@@H]2CCNC(=O)C[C@H](NC1=O)C(=O)N[C@@H](Cc1ccc(O)cc1)C(=O)N[C@@H](CCN)C(=O)N[C@@H](CCCN)C(=O)N[C@@H](CCN)C(=O)N[C@@H](CCN)C(=O)N[C@@H](Cc1c[nH]c3ccccc13)C(=O)N[C@@H](CCN)C(=O)N[C@@H](C(C)(C)C)C(=O)N2 [Example 23, cyclo(-Leu-Asp-Tyr-Dab-Orn-Dab-Dab-Trp-Dab-tBuGly-Dab-Ser-^DPro-Pro-)] (HELM PEPTIDE1{L.D.Y.[Dab].[Orn].[Dab].[Dab].W.[Dab].[CC(C)(C)[C@H](N[*:1])C(=O)[*:2]].[Dab].S.[dP].P}$PEPTIDE1,PEPTIDE1,2:R3-11:R3|PEPTIDE1,PEPTIDE1,1:R1-14:R2$$$V2.0)	0				
			CC(C)C[C@@H]1NC(=O)[C@H](CCN)NC(=O)[C@H]2CCCN2C(=O)[C@H](C(C)C)NC(=O)[C@@H]2CSSC[C@H](NC1=O)C(=O)N[C@@H](Cc1ccc(O)cc1)C(=O)N[C@@H](C)C(=O)N[C@@H](CCN)C(=O)N[C@@H](CCN)C(=O)N[C@@H](CCN)C(=O)N[C@@H](Cc1c[nH]c3ccccc13)C(=O)N[C@@H](C)C(=O)N[C@@H](C(C)C)C(=O)N2 [Example 1, cyclo(-Leu-Cys-Tyr-Ala-Dab-Dab-Dab-Trp-Ala-Val-Cys-Val-^DPro-Dab-)] (HELM PEPTIDE1{A.[Dab].[Dab].[Dab].W.A.V.C.V.[dP].[Dab].L.C.Y}$PEPTIDE1,PEPTIDE1,8:R3-13:R3|PEPTIDE1,PEPTIDE1,1:R1-14:R2$$$V2.0)		2	4	2.5	2

Compound	Escherichia coli ATCC 25922 MIC ([2]; ATCC 25922) [µg/mL]	Acinetobacter baumannii DSM 30008 MIC ([3]; DSM 30008) [µg/mL]	Klebsiella pneumoniae ATCC 13883 MIC ([4]; ATCC 13883) [µg/mL]	Hemolysis at 100 μg/mL ([1]; red cells of human, 1 h, 100) [%]	Hemolysis at 100 μg/mL ([1]; 100 μg/mL, 20% hRBC (v/v), 1 h at 37° C.) [%]	Escherichia coli ATCC 25922 MIC [2, 5] [µg/mL]	Acinetobacter baumannii DSM 30008 MIC [3, 5] [µg/mL]	Klebsiella pneumoniae ATCC 13883 MIC [4, 5] [µg/mL]
CC(C)[C@@H]1NC(=O)[C@H](C)N(C)C(=O)[C@H]2CCCN2C(=O)[C@H](CO)NC(=O)[C@@H]2CSSC[C@H](NC1=O)C(=O)N[C@@H](Cc1ccc(O)cc1)C(=O)N[C@@H](CCN)C(=O)N[C@@H](CN)C(=O)N[C@H](CCN)C(=O)N[C@@H](CCN)C(=O)N[C@@H](Cc1c[nH]c3ccccc13)C(=O)N[C@@H](CCN)C(=O)N[C@@H](C(C)(C)C)C(=O)N2 [Example 9, cyclo(-Val-Cys-Tyr-Dab-Dap-^DDab-Dab-Trp-Dab-tBuGly-Cys-Ser-^DPro-NMeAla-)] (cyclo(CS[dP][NMeA]VCY[Dab][Dap][dDab][Dab]W[Dab][Tle]); disulfide 1-6)	0.5	1	1	6				
CC(C)C[C@@H]1NC(=O)[C@H](CCN)NC(=O)[C@H]2CCCN2C(=O)[C@H](C(C)C)NC(=O)[C@@H]2CSSC[C@H](NC1=O)C(=O)N[C@@H](Cc1ccc(O)cc1)C(=O)N[C@@H](C)C(=O)N[C@@H](CCN)C(=O)N[C@H](CCN)C(=O)N[C@@H](CCN)C(=O)N[C@@H](Cc1c[nH]c3ccccc13)C(=O)N[C@@H](C)C(=O)N[C@@H](C(C)C)C(=O)N2 [Example 2, cyclo(-Leu-Cys-Tyr-Ala-Dab-^DDab-Dab-Trp-Ala-Val-Cys-Val-^DPro-Dab-)] (HELM PEPTIDE1{A.[Dab].[NCC[C@@H](N[*:1])C(=O)[*:2]].[Dab].W.A.V.C.V.[dP].[Dab].L.C.Y}$PEPTIDE1,PEPTIDE1,8:R3-13:R3|PEPTIDE1,PEPTIDE1,1:R1-14:R2$$$V2.0)	2	2.5	2	3				
